According to the supplement of paper PMC10307832:

What was measured:
Assay in all cases: relative viability (nuclei count vs DMSO), 5 days (fraction); higher = more cells survive
[1] = compound: O=C(Nc1cc(C(F)(F)F)cc(C(F)(F)F)c1)c1cc(Cl)ccc1O [IMD-0354] + COc1cc2c(Oc3ccc(NC(=O)C4(C(=O)Nc5ccc(F)cc5)CC4)cc3F)ccnc2cc1OCCCN1CCOCC1 [Foretinib] (partner 0.25 µM)
Method in brief: (§1)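 Cells from lung cancer lines were seeded into 1536-well plates and, one day later, dosed by pin tool. Treatments were either a single drug or a fixed dose of an anchor drug with five library-drug doses (not always all listed) in √10 steps. After 5 days, nuclei were stained in a one-step fixation (final 0.05% Triton X-100, 1% formaldehyde, 1 ug/ml Hoechst) and counted on 4× images, and relative viability is the treated-to-vehicle nuclei ratio, as the median of duplicate plates.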

[2] = compound: Cc1cnc(CNC(=O)c2c(=O)c3ccc(N4CCCN(C)CC4)nc3n3c2sc2ccccc23)cn1 [CX-5461] + Cc1nc(Nc2ncc(C(=O)Nc3c(C)cccc3Cl)s2)cc(N2CCN(CCO)CC2)n1 [Dasatinib] (partner 0.075 µM)
Method in brief: as §1

[3] = compound: Cc1cnc(CNC(=O)c2c(=O)c3ccc(N4CCCN(C)CC4)nc3n3c2sc2ccccc23)cn1 [CX-5461] + CC(C)C[C@H](NC(=O)[C@H](Cc1ccccc1)NC(=O)c1cnccn1)B(O)O [Bortezomib] (partner 0.002 µM)
Method in brief: as §1

[4] = compound: O=C(Nc1cc(C(F)(F)F)cc(C(F)(F)F)c1)c1cc(Cl)ccc1O [IMD-0354] + CC(=O)Nc1cccc(-n2c(=O)n(C3CC3)c(=O)c3c(Nc4ccc(I)cc4F)n(C)c(=O)c(C)c32)c1 [Trametinib] (partner 0.02 µM)
Method in brief: as §1

Cell Line | relative viability ([1]; first compound 0.04 µM) | relative viability ([1]; first compound 0.1265 µM) | relative viability ([1]; first compound 0.4 µM) | relative viability ([1]; first compound 1.265 µM) | relative viability ([1]; first compound 4 µM) | relative viability ([2]; first compound 0.01 µM) | relative viability ([2]; first compound 0.03162 µM) | relative viability ([2]; first compound 0.1 µM) | relative viability ([2]; first compound 0.3162 µM) | relative viability ([2]; first compound 1 µM) | relative viability ([3]; first compound 0.01 µM) | relative viability ([3]; first compound 0.03162 µM) | relative viability ([3]; first compound 0.1 µM) | relative viability ([3]; first compound 0.3162 µM) | relative viability ([3]; first compound 1 µM) | relative viability ([4]; first compound 0.04 µM) | relative viability ([4]; first compound 0.1265 µM) | relative viability ([4]; first compound 0.4 µM) | relative viability ([4]; first compound 1.265 µM) | relative viability ([4]; first compound 4 µM)
NCI-H2087 | 1.08 | 1.04 | 0.382 | 0.257 | 0.189 | 0.938 | 0.903 | 0.736 | 0.793 | 0.554 | 0.812 | 0.884 | 0.781 | 1.07 | 0.525 | 0.18 | 0.183 | 0.125 | 0.097 | 0.116
LC-2-ad | 0.939 | 0.885 | 0.524 | 0.249 | 0.205 | 0.59 | 0.713 | 0.546 | 0.406 | 0.27 | 0.967 | 1.09 | 1.06 | 1.06 | 0.638 | 0.968 | 0.877 | 0.54 | 0.348 | 0.189
NCI-H1915 | 0.976 | 1.15 | 0.491 | 0.818 | 0.272 | 0.292 | 0.358 | 0.301 | 0.299 | 0.297 | 1.03 | 1.06 | 0.989 | 1.02 | 0.891 | 0.321 | 0.309 | 0.324 | 0.249 | 0.12
NCI-H2023 | 0.938 | 0.867 | 0.571 | 0.225 | 0.0843 | 0.667 | 0.603 | 0.245 | 0.497 | 0.0768 | 1.04 | 0.825 |  | 0.52 | 0.0872 | 0.473 | 0.504 | 0.366 | 0.0709 | 0.115
COR-L 105 | 1.25 | 0.808 | 0.67 | 0.932 | 0.296 | 0.3 | 0.356 | 0.299 | 0.325 | 0.255 | 0.841 | 0.701 | 0.492 | 0.385 | 0.416 | 0.435 | 0.448 | 0.455 | 0.342 | 0.318
RERF-LC-KJ | 0.934 | 0.93 | 0.568 | 0.471 | 0.214 | 0.913 | 0.94 | 0.809 | 0.924 | 0.522 | 1.11 | 1.1 | 1.15 | 1.09 | 1.01 | 1.02 | 0.931 | 0.663 | 0.557 | 0.174
LXF-289 | 0.945 | 0.99 | 0.646 | 0.483 | 0.129 | 0.257 | 0.204 | 0.202 | 0.103 | 0.154 | 0.99 | 1.06 | 0.976 | 1.03 | 0.66 | 0.721 | 0.62 | 0.643 | 0.5 | 0.207
PC-14 | 1.05 | 0.799 | 0.698 | 0.546 | 0.179 | 0.312 | 0.251 | 0.295 | 0.272 | 0.0972 | 1.02 | 0.918 | 1.03 | 0.837 | 0.944 | 0.945 | 0.826 | 0.301 | 0.359 | 0.109
NCI-H650 | 1.07 | 0.961 | 0.832 | 0.515 | 0.234 | 0.423 | 0.431 | 0.448 | 0.482 | 0.389 | 0.887 | 0.832 | 0.739 | 0.594 | 0.483 | 0.987 | 1.07 | 1.05 | 0.681 | 0.232
NCI-H1666 | 0.99 | 0.982 | 0.842 | 0.441 | 0.351 | 0.786 | 0.802 | 0.597 | 0.757 | 0.591 | 0.839 | 0.741 |  | 0.758 | 0.505 | 0.738 | 0.849 | 0.719 | 0.872 | 0.523
NCI-H2085 | 0.97 | 0.922 | 0.791 | 0.538 | 0.225 | 0.237 | 0.228 | 0.257 | 0.229 | 0.252 | 1.04 | 0.999 | 0.871 | 1.01 | 0.677 | 0.559 | 0.477 | 0.471 | 0.25 | 0.27
NCI-H1734 | 0.928 | 0.902 | 0.548 | 0.549 | 0.19 | 0.472 | 0.543 | 0.471 | 0.405 | 0.25 | 0.948 | 1.18 | 0.838 | 0.751 | 0.45 | 0.713 | 0.703 | 0.483 | 0.366 | 0.209
NCI-H2126 | 0.935 | 1.23 | 0.813 | 0.875 | 0.494 | 0.54 | 0.568 | 0.562 | 0.672 | 0.413 | 1.12 | 1.15 | 1.15 | 1.09 | 1.06 | 0.591 | 0.558 | 0.491 | 0.644 | 0.31
EMC-BAC-2 | 1.08 | 1 | 0.594 | 0.513 | 0.302 | 0.335 | 0.319 | 0.296 | 0.282 | 0.155 | 1.14 | 1.13 | 1.04 | 1.06 | 0.746 | 0.918 | 0.933 | 0.584 |  | 0.3
NCI-H1993 | 0.768 | 0.869 | 0.699 | 0.477 | 0.559 | 0.657 | 0.588 | 0.499 | 0.621 | 0.473 | 1.09 | 1.18 | 1.14 | 0.944 | 0.937 | 0.53 | 0.353 | 0.557 | 0.507 | 0.401
NCI-H520 | 1.04 | 0.842 | 0.458 | 0.469 | 0.2 | 0.164 | 0.165 | 0.199 | 0.166 | 0.203 | 0.612 | 0.527 | 0.627 | 0.257 | 0.315 | 0.687 | 0.725 | 0.522 | 0.143 | 0.149
